Source: PubChem BioAssay AID2060625 (Molecular Pharmacology Branch, DTP, NCI, 2025)

Test system: 186277-243-T-J2-PDC spheroids with HUVEC/MSC, viability
Experiment: Anticancer human tumor 186277-243-T-J2-PDC patient-derived colon adenocarcinoma cell line growth inhibition [CLK]
Details: for IC50: curve of first compound; for viability, T/C: stronger effect = lower value
Description: A high-throughput screen of multi-cell type tumor spheroids was designed to identify active combinations of […] and targeted small molecules. Complex spheroids include a stromal component modeled by human endothelial cells (HUVEC) and fibroblasts modeled by human mesenchymal stem cells (MSCs). The concentration ranges selected for each drug and investigational agent were based upon clinically achievable concentrations if the clinical Cmax of the agent was known.
Compounds. The drugs and investigational agents: cirtuvivint (SM08502; NSC835563), CC-671 (NSC850746), vemurafenib (NSC761431), tapotoclax (NSC804041), sotorasib (NSC818433), adagrasib (NSC831453), MRTX-1133 (NSC836407), BAY2416964 (NSC825713), copanlisib (NSC816437), inavolisib (NSC800729), abemaciclib (NSC768073), osimertinib (NSC779217), entinostat (NSC756642), eltanexor (KPT-8602, NSC794443), venetoclax (NSC766270), ceralasertib (NSC777638), bortezomib (NSC756655), olaparib (NSC753686), talazoparib (NSC767125), alisertib (NSC759677), peposertib (NSC802822), gemcitabine (NSC613327), 5-fluorouracil (NSC19893), SN-38 (NSC673596), oxaliplatin (NSC266046), paclitaxel (NSC125973), and doxorubicin (NSC123127), were obtained from the National Cancer Institute (NCI) Developmental Therapeutics Program Chemical Repository. The FDA-approved anticancer drug set is available from the Developmental Therapeutics Program at https://dtp.cancer.gov/organization/dscb/obtaining/available plates.htm. […] The stock solutions were prepared in dimethyl sulfoxide (DMSO, Sigma-Aldrich, St. Louis, MO, cat. D2650), except for the platinum complexes which were prepared in saline (Quality Biological, Gaithersburg, MD, cat. 114-055-101), at 800-fold the tested concentration and stored at -70 degrees C prior to their use. All drugs and investigational agents were tested over a range starting from a high concentration at or near the clinical Cmax and decreasing in half-log increments. If the clinical Cmax for an agent had not been determined, the highest concentration tested was 10 microM.
Cell Culture. All cells were maintained in an incubator at 37 degrees C and 5% CO2 with 95% humidity. The PDC lines were cultured according to standard operating procedures established by the NCI PDMR. Briefly, all PDCs were thawed and cultured in Matrigel-coated flasks prepared with a working solution of 1X Ham's F-12 nutrient mix, without supplementation (Invitrogen, Waltham, MA, cat. 11765054), 100 U/mL penicillin-streptomycin (Invitrogen, cat. 15140122), and 2.5% Matrigel (Corning Inc., Corning, NY, cat. 354248) for the first three passages. The 947758-054-R-J2-PDC line was cultured in 6B/Colon 1A media, which includes advanced DMEM/F-12 (Thermo Fisher Scientific, cat. 12634028), 10 mM HEPES (Thermo Fisher Scientific, cat. 15630080), 1X GlutaMAX supplement (Thermo Fisher Scientific, cat. 35050061), 0.1 mg/mL primocin (InvivoGen, cat. ant-pm-2), 10% defined fetal bovine serum, heat inactivated (HyClone Laboratories Inc., cat. SH30070.03HI), 1.25 mM N-Acetyl-L-cysteine (Sigma-Aldrich, cat. A9165), 10 mM nicotinamide (Sigma-Aldrich, cat. N0636), 1X B-27 supplement (Thermo Fisher Scientific, cat. 17504044), 1X N-2 supplement (Thermo Fisher Scientific, cat. 17502048), and 10 microM Y-27632 dihydrochloride (Tocris Bioscience, cat. 1254). The 876862-298-R-J1-PDC was cultured in 6E media, which includes all 6B/Colon 1A media components plus 50% L-WRN conditioned media (ATCC, cat. CRL-3276), 50 ng/mL recombinant human EGF recombinant protein (hEGF; Thermo Fisher Scientific, cat. PHG0311), 10 ng/mL recombinant human fibroblast growth factor 10 (hGFG-10; PeproTech, cat. 100-26), 1 ng/mL recombinant human fibroblast growth factor 2 (hFGF-2; PeproTech, cat. 100-18B), and 1 µM prostaglandin E2 (PGE2; Tocris, cat. 2296). The 227483-062-R1-J1-PDC line was cultured in Panc media, containing all 6E components except hFGF-2, with the addition of 500 nM SB-431542 (Selleckchem, cat. S1067) and 10 nM gastrin (Tocris, cat. 3006). […]

[1] = second compound 0.0316 µM, first compound 0.0316 µM
[2] = second compound 0.0316 µM, first compound 0.1 µM
[3] = second compound 0.0316 µM, first compound 0.316 µM
[4] = second compound 0.0316 µM, first compound 1 µM
[5] = second compound 0.0316 µM, first compound 3.16 µM
[6] = second compound 0.0316 µM, first compound 10 µM
[7] = second compound 0.1 µM, first compound 0.0316 µM
[8] = second compound 0.1 µM, first compound 0.1 µM
[9] = second compound 0.1 µM, first compound 0.316 µM
[10] = second compound 0.1 µM, first compound 1 µM
[11] = second compound 0.1 µM, first compound 3.16 µM
[12] = second compound 0.1 µM, first compound 10 µM
[13] = second compound 0.316 µM, first compound 0.0316 µM
[14] = second compound 0.316 µM, first compound 0.1 µM
[15] = second compound 0.316 µM, first compound 0.316 µM
[16] = second compound 0.316 µM, first compound 1 µM
[17] = second compound 0.316 µM, first compound 3.16 µM
[18] = second compound 0.316 µM, first compound 10 µM
[19] = second compound 1 µM, first compound 0.0316 µM
[20] = second compound 1 µM, first compound 0.1 µM
[21] = second compound 1 µM, first compound 0.316 µM
[22] = second compound 1 µM, first compound 1 µM
[23] = second compound 1 µM, first compound 3.16 µM
[24] = second compound 1 µM, first compound 10 µM
[25] = second compound 3.16 µM, first compound 0.0316 µM
[26] = second compound 3.16 µM, first compound 0.1 µM
[27] = second compound 3.16 µM, first compound 0.316 µM
[28] = second compound 3.16 µM, first compound 1 µM
[29] = second compound 3.16 µM, first compound 3.16 µM
[30] = second compound 3.16 µM, first compound 10 µM
[31] = second compound 10 µM, first compound 0.0316 µM
[32] = second compound 10 µM, first compound 0.1 µM
[33] = second compound 10 µM, first compound 0.316 µM
[34] = second compound 10 µM, first compound 1 µM
[35] = second compound 10 µM, first compound 3.16 µM
[36] = second compound 10 µM, first compound 10 µM
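Further: compound exposure lasted seven days before readout.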
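Wherever viability, T/C is given: 100% = DMSO vehicle control wells.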

With `CCCS(=O)(=O)Nc1ccc(F)c(C(=O)c2c[nH]c3ncc(-c4ccc(Cl)cc4)cc23)c1F` + CN1CCN(c2cc(C(=O)Nc3cc4cc(-c5cnn(C)c5)ccc4cn3)ccn2)CC1 the IC50 (second compound 0.0316 µM) was > 10000 nM, the IC50 (second compound 0.1 µM) was > 10000 nM and the IC50 (second compound 0.316 µM) was < 31.6 nM. The IC50 (second compound 1 µM) was < 31.6 nM, the IC50 (second compound 3.16 µM) was < 31.6 nM and the IC50 (second compound 10 µM) was < 31.6 nM. For the same molecule, the viability, T/C [1] was 109%, the viability, T/C [2] was 104% and the viability, T/C [3] was 103%. The viability, T/C [4] was 97.4%, the viability, T/C [5] was 113% and the viability, T/C [6] was 89.6%. The viability, T/C [7] was 87.4%, the viability, T/C [8] was 82.3% and the viability, T/C [9] was 86.7%. The viability, T/C [10] was 99.4%, the viability, T/C [11] was 95.9% and the viability, T/C [12] was 69.2%. For the same molecule, the viability, T/C [13] was 30.5%, the viability, T/C [14] was 30.9% and the viability, T/C [15] was 31.8%. It also gave a viability, T/C [16] of 32.1%, a viability, T/C [17] of 22.5% and a viability, T/C [18] of 20.1%. It also gave a viability, T/C [19] of 0.48%, a viability, T/C [20] of 0.83% and a viability, T/C [21] of 1.17%. It also gave a viability, T/C [22] of 1.25%, a viability, T/C [23] of 0.57% and a viability, T/C [24] of 0.46%. The viability, T/C [25] was 1.11%, the viability, T/C [26] was 1.22% and the viability, T/C [27] was 2.84%. It also gave a viability, T/C [28] of 1.64%, a viability, T/C [29] of 2.61% and a viability, T/C [30] of 1.65%. For the same molecule, the viability, T/C [31] was 0.65%, the viability, T/C [32] was 0.72% and the viability, T/C [33] was 1.61%. The viability, T/C [34] was 0.95%, the viability, T/C [35] was 1.27% and the viability, T/C [36] was 0.74%.
In the case of `COC1C=CCC(C)C(C)S(=O)(=O)NC(=O)c2ccc3c(c2)N(CC2CCC21)CC1(CCCc2cc(Cl)ccc21)CO3` (centres undefined) + CN1CCN(c2cc(C(=O)Nc3cc4cc(-c5cnn(C)c5)ccc4cn3)ccn2)CC1, the IC50 (second compound 0.0316 µM) is reported as 4120 nM, the IC50 (second compound 0.1 µM) is reported as 1120 nM and the IC50 (second compound 0.316 µM) is reported as < 31.6 nM. The IC50 (second compound 1 µM) was < 31.6 nM, the IC50 (second compound 3.16 µM) was < 31.6 nM and the IC50 (second compound 10 µM) was < 31.6 nM. The viability, T/C [1] was 102%, the viability, T/C [2] was 97.9% and the viability, T/C [3] was 103%. For the same molecule, the viability, T/C [4] was 87.3%, the viability, T/C [5] was 64.4% and the viability, T/C [6] was 3.46%. For the same molecule, the viability, T/C [7] was 87.5%, the viability, T/C [8] was 91.2% and the viability, T/C [9] was 74%. It also gave a viability, T/C [10] of 54.3%, a viability, T/C [11] of 21.4% and a viability, T/C [12] of 2.36%. It also gave a viability, T/C [13] of 25.6%, a viability, T/C [14] of 30.4% and a viability, T/C [15] of 16.9%. It also gave a viability, T/C [16] of 5.75%, a viability, T/C [17] of 3.04% and a viability, T/C [18] of 1.3%. It also gave a viability, T/C [19] of 1.87%, a viability, T/C [20] of 0.6% and a viability, T/C [21] of 0.97%. The viability, T/C [22] was 0.6%, the viability, T/C [23] was 0.3% and the viability, T/C [24] was 0.24%. For the same molecule, the viability, T/C [25] was 1.99%, the viability, T/C [26] was 0.97% and the viability, T/C [27] was 1.2%. The viability, T/C [28] was 0.98%, the viability, T/C [29] was 1.26% and the viability, T/C [30] was 0.58%. The viability, T/C [31] was 0.93%, the viability, T/C [32] was 1.11% and the viability, T/C [33] was 1.01%. For the same molecule, the viability, T/C [34] was 0.62%, the viability, T/C [35] was 1.39% and the viability, T/C [36] was 0.26%.
